# According to patent publication US7723358B2, “Aroyl-O-piperidine derivatives for the treatment of diabetes-related problems” (Merck Patent GmbH, priority 2004, dated 2010):
# Columns and labels:
# [1] = molecular target: T1, microsomal triglyceride transfer protein (MTP) (Mesocricetus auratus, UniProt P55158); experiment: Inhibition of MTP activity: transfer of [3H]-triolein from donor liposomes to biotinylated LDL, SPA; type: biochemical; details: MTP from golden hamster liver; incubation 18-24 hours at 37° C.; read-out: IC50, concentration that allows a 50% inhibition of MTP
# T1 construct: The supernatant comprising the soluble MTP is dialysed against Tris/HCl 150 mM; from tissue; host or cells: golden hamster liver microsomes, deoxycholate-solubilised supernatant, dialysed
# T1 sequence (P55158 19-895): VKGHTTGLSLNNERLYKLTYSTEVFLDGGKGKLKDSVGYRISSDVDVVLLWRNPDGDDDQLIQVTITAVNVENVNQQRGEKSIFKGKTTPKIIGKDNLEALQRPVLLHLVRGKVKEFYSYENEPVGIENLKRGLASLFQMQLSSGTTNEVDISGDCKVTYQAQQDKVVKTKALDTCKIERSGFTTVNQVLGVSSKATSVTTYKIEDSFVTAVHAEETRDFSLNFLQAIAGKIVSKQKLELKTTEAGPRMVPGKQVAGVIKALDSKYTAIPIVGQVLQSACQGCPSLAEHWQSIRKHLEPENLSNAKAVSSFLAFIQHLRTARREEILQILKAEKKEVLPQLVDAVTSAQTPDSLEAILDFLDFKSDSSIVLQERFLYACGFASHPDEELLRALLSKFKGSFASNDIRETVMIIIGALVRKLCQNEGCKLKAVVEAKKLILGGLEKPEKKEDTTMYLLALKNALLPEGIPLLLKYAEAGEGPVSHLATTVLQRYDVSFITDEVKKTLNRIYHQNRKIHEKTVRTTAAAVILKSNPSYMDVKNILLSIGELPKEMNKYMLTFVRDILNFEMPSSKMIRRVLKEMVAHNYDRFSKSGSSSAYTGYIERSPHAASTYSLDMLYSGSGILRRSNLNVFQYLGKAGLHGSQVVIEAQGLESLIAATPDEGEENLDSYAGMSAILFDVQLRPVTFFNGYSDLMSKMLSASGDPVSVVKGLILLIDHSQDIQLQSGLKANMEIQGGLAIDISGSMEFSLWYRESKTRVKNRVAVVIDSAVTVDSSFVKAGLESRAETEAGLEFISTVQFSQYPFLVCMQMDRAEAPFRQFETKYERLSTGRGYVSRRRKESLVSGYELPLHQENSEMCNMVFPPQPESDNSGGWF
# Outline: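 Soluble MTP was extracted with deoxycholate from golden hamster liver microsomes. It was incubated with [3H]-triolein/phosphatidylcholine donor liposomes, biotinylated LDL acceptors and compound in DMSO in HEPES/NaCl/BSA buffer, pH 7.4, for 18-24 h at 37° C. Transfer was read with streptavidin SPA beads, and IC50 was taken as 50% inhibition of transfer.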
# [2] = test system: apo B secretion in HepG2 cells; experiment: Secretion of apo B in the HepG2 human cell line (sandwich-ELISA); type: cell-based; details: 24 hours incubation, culture supernatant, read-out: IC50, concentration that produces a 50% inhibition of apo B secretion in the HepG2 cells
# Protocol: Analysis of the Secretion of apo B in the HepG2 Human Cell Line:
# The activity of a compound according to the invention can be evaluated by measuring the inhibition of apo B secretion in HepG2 cells.
# The HepG2 cells (ECACC—No. 85011430) are used as model in the study of the in vitro hepatic secretion of lipoproteins (Dixon J. and Ginsberg H., J., Lipid. Res., 1993, 34, 167-179).
# The HepG2 cells are cultured in Dulbecco's modified Eagle's medium comprising 10% foetal calf serum (DMEM and FBS—Gibco) in 96-well plates under an atmosphere of 5% carbon dioxide for 24 hours (about 70% confluence).
# The test compounds are dissolved at a concentration of 2 or 10 mM in dimethyl sulfoxide (DMSO). Serial dilutions (1:3.16) are made in DMSO and are added (1:200—Robot Multimek Beckman) to the growth medium (200 μL) and then finally incubated for 24 hours in the various wells containing the HepG2 cells.
# The 24-hour culture supernatant diluted to 1:5 (phosphate-buffered saline:PBS comprising 1% bovine serum albumin) is tested according to a sandwich-ELISA method specific for human apo B.
# The results are expressed in terms of IC50, i.e. the concentration that produces a 50% inhibition of apo B secretion in the HepG2 cells.
SMILES,IC50 [1] [nM],IC50 [2] [nM]
"COCCOC(=O)N1CCC(Oc2cccc(NC(=O)c3cccc(C)c3-c3ccc(OC(F)(F)F)cc3)c2)CC1 [Example 73, 2-methoxyethyl 4-[3-[[[6-methyl-4′-(trifluoromethoxy)[1,1′-biphenyl]-2-yl]-carbonyl]amino]phenoxy]-1-piperidine-carboxylate]",33.3,1.6
CCCCS(=O)(=O)N1CCC(Oc2cccc(NC(=O)c3cccc(C)c3-c3ccc(OC(F)(F)F)cc3)c2)CC1 [Example 22],45,12.7
"COC(=O)N1CCC(Oc2cccc(NC(=O)c3cccc(C)c3-c3ccc(OC(F)(F)F)cc3)c2)CC1 [Example 5, methyl 4-[3-[[[6-methyl-4′-(trifluoro-methoxy)[1,1′-biphenyl]-2-yl]carbonyl]-amino]phenoxy]-1-piperidinecarboxylate]",45.1,0.8
CSC(=O)N1CCC(Oc2cccc(NC(=O)c3cccc(C)c3-c3ccc(OC(F)(F)F)cc3)c2)CC1 [Example 10],39.2,12.2
COCCOC(=O)N1CCC(Oc2cccc(NC(=O)c3ccccc3-c3ccc(OC(F)(F)F)cc3)c2)CC1 [Example 74],110,83
"Cc1cccc(C(=O)Nc2cccc(OC3CCN(C(=O)OCc4ccccc4)CC3)c2)c1-c1ccc(OC(F)(F)F)cc1 [Example 7, phenylmethyl 4-[3-[[[6-methyl-4′-(trifluoro-methoxy)[1,1′-biphenyl]-2-yl]carbonyl]-amino]phenoxy]-1-piperidinecarboxylate]",45.2,17
"CCOC(=O)N1CCC(Oc2cccc(NC(=O)c3cccc(C)c3-c3ccc(OC(F)(F)F)cc3)c2)CC1 [Example 6, ethyl 4-[3-[[[6-methyl-4′-(trifluoromethoxy)-[1,1′-biphenyl]-2-yl]carbonyl]amino]-phenoxy]-1-piperidinecarboxylate]",47.6,4

# Further compounds by falling IC50 [1], results first:
IC50 [1] [nM],IC50 [2] [nM],SMILES
213,25.7,"CC(=O)OCC(=O)N1CCC(Oc2cccc(NC(=O)c3cccc(C)c3-c3ccc(OC(F)(F)F)cc3)c2)CC1 [Example 102, N-[3-[[1-[2-(acetyloxy)acetyl]-4-piperidin-yl]oxy]phenyl]-6-methyl-4′-(trifluorometh-oxy)[1,1′-biphenyl]-2-carboxamide]"
166,72.8,"Cc1cccc(C(=O)Nc2cccc(OC3CCN(C(=O)C(C)C)CC3)c2)c1-c1ccc(OC(F)(F)F)cc1 [Example 142, 6-methyl-N-[3-[[1-(2-methyl-1-oxopropyl)-4-piperidinyl]oxy]phenyl]-4′-(trifluorometh-oxy)[1,1′-biphenyl]-2-carboxamide]"
146,37.6,"Cc1cccc(C(=O)Nc2cccc(OC3CCN(C(=O)Nc4ccc5c(c4)OCO5)CC3)c2)c1-c1ccc(OC(F)(F)F)cc1 [Example 56, N-1,3-benzodioxol-5-yl-4-[3-[[[6-methyl-4′-(trifluoromethoxy)[1,1′-biphenyl]-2-yl]-carbonyl]amino]phenoxy]-1-piperidine-carboxamide]"
130,39.8,"COCCOC(=O)N1CCC(Oc2cccc(NC(=O)c3ccccc3-c3ccc(C(F)(F)F)cc3)c2)CC1 [Example 75, 2-methoxyethyl 4-[3-[[[4′-(trifluoromethyl)-[1,1′-biphenyl]-2-yl]carbonyl]amino]-phenoxy]-1 piperidinecarboxylate]"
114,62.7,"Cc1cccc(C(=O)Nc2cccc(OC3CCN(S(=O)(=O)C(C)C)CC3)c2)c1-c1ccc(OC(F)(F)F)cc1 [Example 14, 6-methyl-N-[3-[[1-[(1-methyl-ethyl)sulfonyl]-4-piperidinyl]oxy]phenyl]-4′-(trifluoromethoxy)[1,1′-biphenyl]-2-carboxamide]"
86.9,53,"CCNC(=O)N1CCC(Oc2cccc(NC(=O)c3cccc(C)c3-c3ccc(OC(F)(F)F)cc3)c2)CC1 [Example 12, N-ethyl-4-[3-[[[6-methyl-4′-(trifluoro-methoxy)[1,1′-biphenyl]-2-yl]carbonyl]-amino]phenoxy]-1-piperidinecarboxamide]"
55.6,28.2,"Cc1cccc(C(=O)Nc2cccc(OC3CCN(S(=O)(=O)c4ccccc4)CC3)c2)c1-c1ccc(OC(F)(F)F)cc1 [Example 15, 6-methyl-N-[3-[[1-(phenylsulfonyl)-4-piperidinyl]oxy]phenyl]-4′-(trifluoro-methoxy)[1,1′-biphenyl]-2-carboxamide]"
